One assay has as its system P. aeruginosa. Briefly: orientation of surface attachment (vertical vs horizontal) of cells. The format is cell-based. The settings on record: 10 mM MHQ; ntotal=1331; PBS control 76%. On the procedure:
Upon treatment with phosphate buffered saline (PBS), 76% (ntotal=1347) of the cells attached to the surface vertically. In contrast, upon treatment with, e.g., 10 mM MHQ, only 5% (ntotal=1331) of the cells attached to the surface vertically. A similar behavior is found between MHQ-treated WT cells and mutants lacking Type IV pilin subunits (PilA), as only 7% (ntotal=1995) of ΔpilA cells were attached vertically even in PBS treatment.

In assay [1] the test system is type IV pili (T4P) twitching motility. As to the kind of experiment: twitching assay (spread under agar, crystal violet staining). The format is cell-based, P. aeruginosa. An excerpt: Since T4P is required for twitching motility, the dispersing compound's effect on a pathogen can be seen in a twitching assay. In this assay, cells are placed underneath agar and allowed to spread from their starting spot along the bottom surface of a Petri dish. The extent of this spread is visualized with crystal violet staining and quantified. In the presence of agar made with LB, WT cells traveled 11±0.7 mm (mean±SD) from the starting spot. […] The effect of MHQ on twitching depended on T4P, as ΔpilA cells that lack T4P traveled similar distances away from the starting spot in the absence of MHQ (1.9±0.1 mm) or in the presence of MHQ (2.3±0.3 mm).

A further assay relates to T4P activity. As to the kind of experiment: T4P dynamics imaging by cysteine-labeling of PilA. It is filed as cell-based, P. aeruginosa. The conditions noted are these: 2 mM MHQ for 5 min; n=493; PBS control 77%. On the procedure: To directly assay the effect of a dispersing compound on T4P activity, the recently developed cysteine-labeling approach can be used to fluorescently label T4P and image their dynamics. This approach uses a cysteine point mutation in an unstructured loop of the PilA pilin subunit to label the pili through maleimide-based click chemistry. In one experiment, the pili of untreated cells were labeled and then imaged T4P dynamics after a brief (5 min) exposure to MHQ or PBS control. Following a 5 min mock treatment with PBS, T4P were seen extending and retracting from 77% of the cells (n=473). […] Since the T4P was labeled before MHQ treatment and the treatment was brief, this effect cannot be attributed to effects of MHQ on TFP expression or labeling. Similar results can be seen with other disclosed dispersing compounds.

For the compound `Cc1cc(O)c2ccccc2n1` [MHQ, 2-methyl-4-hydroxyquinoline], the “cells attached to the surface vertically” value in the assay with P. aeruginosa came to 5%. Also, the “distance traveled from the starting spot” value turned out to be 7±0.5 mm in assay [1] (WT cells, agar made with LB and 2 mM MHQ, mean±SD, LB alone 11±0.7 mm); 2.3±0.3 mm in assay [1] (ΔpilA cells that lack T4P, in the presence of MHQ, without MHQ 1.9±0.1 mm). Moreover, the “cells exhibiting any T4P extension or retraction events” value in the assay with T4P activity is 4%.

Values taken from patent US20220015363A1, “SMALL MOLECULE PATHOGEN DISPERSAL AGENT” (The Trustees of Princeton University, priority 2020, published 2022).
